Patent US12076307B2, “Compositions for prevention or treatment of acute radiation syndrome and other radiation exposure” (priority 2017, dated 2024)
Read-outs that look alike come from different tables or passages of the source.

Assays:
[1] = system: Balb/c mice, TBI 6.5 or 8 Gy; assay: Radiation-induced skin damage (erythema) in lethal ARS mouse models; assay type: in vivo
Excerpt: In order to evaluate effects of PLAG on recovery skin damage of animal models exposed to radiation, the following test groups were constructed as shown in Table 4 and results are shown in FIGS. 13-15. As discussed in Examples above, the first group of untreate group (negative control) of mice after radiation was compared to the second group of treated group of mice with PLAG after radiation.
In addition to the ARS survival studies that have been conducted in mice, a series of studies that probe secondary measures of efficacy in radiation-induced skin damage in the Balb/c mice (n=10/sex/group). […] The development of skin damage (erythema and reddening) on the tails were evaluated.
In the following study, Balb/c mice (n=5 females/group) were exposed with a supra-lethal radiation dosage of 8 Gy and treated with EC-18 daily at 250 mg/kg/day for 17 days.
The secondary measures of EC-18's efficacy on the supra-LD (8 Gy) of radiation-induced skin damage were assessed. Female BALB/c mice (9 weeks of age) were randomly divided into 2 cohorts and daily administered in-life with the vehicle control (PBS) and EC-18 at 250 mg/kg (n=5/each cohort).

[2] = system: Pseudomonas aeruginosa K (PAK); assay: Co-culture of bone marrow-derived monocytes with PAK, CFU; assay type: cell-based; details: 100 μg/mL 1 hr; PAK MOI 50
Procedure: Structural-Activity Relationship Work of EC-18 To assess the optimal structure of EC-18, structural-activity relationship work was examined. A total of five structural analogs of EC-18 were selected by changing one fatty acid chain structure (red boxes in FIG. 43) and evaluated in bone marrow-derived monocytes co-cultured with Pseudomonas aeruginosa K (PAK). All analogs along with EC-18 were inoculated with PAK at the multiplicity of infection (MOI) of 50 for 30 mins and then, treated for 1 hr at the dosage of 100 μg/mL.
As a measure of […], the colony-forming units (CFUs) from each group were examined.

[3] = system: Balb/c mice, 6.11 Gy TBI; assay: Structural analog / calorie effect study: EC-18, PLH, olive oil in 6.11 Gy ARS model; assay type: in vivo, mouse; details: 250 mg/kg daily
Procedure: Similarly, a structural analog efficacy study was conducted to identify the optimally functional molecule in the ARS murine model. The study was performed with the structural analog in which the acetyl group in EC-18 is replaced with a hydroxyl group (yielding palmitic linoleic hydroxyl glycerol, PLH) in 20 Balb/c mice (10 female and 10 male) per group. Mice were irradiated with TBI of 6.11Gy at day 0 and 250 mg/kg of EC-18 or PLH were given daily in-life.
The purpose of this study was to assess whether extra calories of EC-18 contribute to the enhanced survival in mice after exposure to a whole-body sublethal dose of γ-radiation. The study was performed with the structural analog in which the acetyl group in EC-18 is replaced with a hydroxyl group (yielding PLH) in a total of 100 BALB/c mice ([…]; 20 animals per study group) aged at 11 weeks. Mice were irradiated with TBI of 6.11Gy at day 0 and the same dosage (250 mg/kg) of EC-18, PLH, or olive oil (vehicle control) were given daily in-life.

[4] = Whole blood and lymphatic radioactivity in rats after single oral [14C]EC-18 100 mg/kg; assay type: in vivo, rat; details: 100 mg/kg oral; for Tmax: n=3, 100 mg/kg
Procedure: Male SD rats in fasted condition were administered a single dose of [^14C]EC-18 (oral dose of 100 mg/kg; vehicle: olive oil), and the radioactive concentration of the EC-18 was measured in whole blood samples at 0.5, 1, 2, 3, 4, 6, and 8 hrs after its administration. In parallel, male rats with a cannula inserted into the intestinal tract were administered a single dose of [^14C]EC-18 (oral dose of 100 mg/kg; vehicle: olive oil) and the concentration of EC-18-related radioactivity was measured in lymphatic fluid collected in conscious rats at 0.5, 1, 2, 3, 4, 6, and 8 hrs after its administration (FIG. 60). Then, the values of PK parameters were calculated using the quantitative data from whole blood and lymphatic fluid samples (Table 20). Following a single oral administration of [14C]EC-18, EC-18 concentration in the lymphatic fluid of rats was 10 to 53 times higher than that in whole blood (FIG. 60).

[5] = system: CYP3A4; details: for Enzyme Activity CYP3A4: n=3
Procedure: This test was performed to determine if EC-18 was capable of inducing CYP1A2 and CYP3A4 activities in human primary hepatocytes.

[6] = Repeated dose toxicity, SD rat; assay type: in vivo; details: SD, rat, in vivo, Oral
Excerpt: (§1) Various toxicology studies have been performed. All studies were GLP-compliant unless otherwise noted.

[7] = system: SD rat; assay: Repeated dose toxicity, SD rat; assay type: in vivo; details: Oral
Excerpt: as §1

[8] = system: Chinese hamster lung cells (CHL/IU); assay: Chromosomal aberration test; assay type: cell-based; details: 6 and 24 hrs; with or without metabolic activation
Excerpt: as §1

[9] = Embryo-fetal developmental toxicity study, SD rat; assay type: in vivo; details: SD, rat, in vivo; definitive study; Oral 11 days
Excerpt: as §1

[10] = system: SD rat; assay: Embryo-fetal developmental toxicity study, SD rat; assay type: in vivo; details: for mortality: 0, 500, 1000, 2000 mg/kg
Excerpt: as §1

[11] = system: SD rat; assay: Immunotoxicity study (splenic blastogenesis response test); assay type: in vivo; details: Oral; 4 weeks
Excerpt: as §1

Q: Which results are given for `CCCCC/C=C\C/C=C\CCCCCCCC(=O)OC(COC(C)=O)COC(=O)CCCCCCCCCCCCCCC` (stereo not drawn) [EC-18, 1-palmitoyl-2-linoleoyl-3-acetylglycerol]?
A: skin damage (erythema and reddening) on the tails vs PBS ([1]; 6.5 Gy, 250 mg/kg/day 30 days): substantial reduction of tail erythema; skin damage (necrosis, ulceration, blistering, hair loss) on tails and feet vs PBS ([1]; 8 Gy, 250 mg/kg/day 17 days, n=5 females): extensively reduced; mice with any skin damage on the tails ([1]; 8 Gy, 250 mg/kg, n=5, day 10): none of the five; mice with slight hemorrhagic telangiectasia on the front right feet ([1]; 8 Gy, 250 mg/kg, n=5, day 10): Only one individual; colony-forming units (CFUs) vs other analogs or control groups [2]: significantly higher; No. of mice that survived/total [3]: 14/20; Survival [3]: 70%; Survival time of decedents, Mean ± SEM [3]: 23.7 ± 1.4 days; Survival time of decedents, Median [3]: 23.5 days; body weight loss induced by irradiation [3]: effectively prevented and rapidly recovered weight loss; increase in survival vs control and PLH-treated group [3]: 2 fold; survival compared to control group [3]: significant increase; AUC0-last in lymphatic fluid relative to whole blood [4]: 41 times; Cmax in lymphatic fluid relative to whole blood [4]: 31 times; Tmax ([4]; Lymphatic Fluid): 7.0 h; Tmax ([4]; Whole Blood, fasted): 3.8 h; Enzyme Activity CYP3A4 ([5]; 1 μM): 3.44 ± 0.73 pmol/106 Cells/Min; Enzyme Activity CYP3A4 ([5]; 10 μM): 3.11 ± 0.25 pmol/106 Cells/Min; Enzyme Activity CYP3A4 ([5]; 100 μM): 3.61 ± 0.28 pmol/106 Cells/Min; potential to induce CYP3A4 ([5]; up to 100 μM): no potential to induce; NOAEL at 4 weeks ([6]; 4 weeks (DRF)): > 2000 mg/kg/day; NOAEL at 13 weeks ([6]; 13 weeks): > 2000 mg/kg/day; NOAEL at 26 weeks ([6]; 26 weeks (4-week recovery)): > 2000 mg/kg/day; findings ([7]; 4 weeks (DRF)): No specific findings; mortality ([7]; 4 weeks (DRF), 0, 500, 1000, 2000 mg/kg): No dead animals; findings ([7]; 13 weeks): No specific findings; mortality ([7]; 13 weeks, 0, 500, 1000, 2000 mg/kg): No dead animals; findings ([7]; 26 weeks (4-week recovery)): No specific findings; mortality ([7]; 26 weeks (4-week recovery), male in 500 mg/kg group, 41st day, no relationship to EC-18 dosing): A single case of death; inducible effects on chromosomal aberration [8]: EC-18 didn't have; NOAEL at 11 days [9]: 2000 mg/kg/day; significant differences in implantation rate, male-to-female ratio of fetuses, fetal mortality rate vs control ([10]; DRF study, Oral 11 days): There were no; mortality ([10]; DRF study, Oral 11 days (day-7 to day-17 of pregnancy)): No dead animals; findings ([10]; definitive study, Oral 11 days): No specific findings; mortality ([10]; definitive study, Oral 11 days): No dead animals; T and B lymphocyte proliferation [11]: No changes in T and B
